Columns and labels:
[1] = molecular target: T1, RHOGDI1-mediated extraction of CDC42 (Homo sapiens, UniProt P52565); experiment: Liposome sedimentation assay: displacement of prenylated GDP-bound CDC42 by GST-RHOGDI1; type: biochemical; conditions: 50 μM compound
T1 construct: made in house; host or cells: RHOGDI1: E. coli; prenylated CDC42: insect cells (TNAO38)
Procedure: Supplementary Figure S4. Compound 7a impairs RHOGDI1 function. (a) Assay setup for the liposome sedimentation assay. (b) Displacement of prenylated GDP‐bound RAC1 from synthetic liposomes by GST-RHOGDI1 in the presence or absence of 50 μM 7a was measured using liposome floatation assay. Data is representative of three independent experiments.
Liposome-containing phase represented by fluorescent colour as result of 5% fluorescent NDB-PE was analysed by Western blotting. Data are representatives of three independent […]
experiments. (c-d) Displacement of prenylated
GDP‐bound RHO GTPases (RHOA and CDC42) from synthetic liposomes by GST‐RHOGDI1 […]
liposome sedimentation assay. Data is representative of three independent experiments. P: […]
Liposome sedimentation assay
Liposomes were prepared by self-assembly of the lipids (500 μg) containing 20% (w/w) phosphatidylethanolamine, 45% (w/w) phosphatidylcholine, 20% (w/w) phosphatidylserine, 10% (w/w) cholesterol, and 5% (w/w) phosphatidylinositol 4,5-bisphosphate. […] The resulting pellet and supernatant fractions were collected and analyzed by immunoblotting. […]
The resulting samples were centrifuged at 140000 x g for 1 h at 4 °C. The upper liposome‐ containing phase (detected by fluorescent NDB‐PE) was collected and analyzed by […]

[2] = system: Alpl expression in C3H10T1/2 cells; experiment: RT-qPCR of Alpl mRNA; type: cell-based, mouse; conditions: 1.5 μM purmorphamine, 96 h
Procedure: Supplementary Figure S6 (related to Figure 5). Characterization of compound 7l (Rhonin).
(a) GLI-responsive reporter gene assay in SHH-LIGHT2 cells. (b) Influence of Rhonin on the expression of Alpl. C3H10T1/2 cells were treated with 1.5 µM purmorphamine and the compounds for 96 h prior to RT-qPCR to detect Alpl mRNA levels. Data were normalzed to Gapdh and Ap3d1 gene levels and are mean values (n = 3) ± SD. (c) Detection of cilia in NIH/3T3 cells. NIH/3T3 cells were cultured in serum reduced (0.5 % FCS) medium for 24 h to induce cilia formation, followed by a pre-treatment of cells with different concentrations of 7l or Vismodegib or DMSO as a control in serum reduced medium. […]
projections, after previous background subtraction. For quantification, cilia were identified and […]
Smoothened antibody were measured within these areas. […]
significances were assessed using an unpaired t-test (confidence interval of 95%) with the […]
replicates were performed and for each replicate at least 100 cilia per condition were analyzed.
Reverse transcription- quantitative PCR (RT-qPCR) […]
DNase I digestion step. The concentration of purified RNA was determined by means of the […]
QuantiTect Reverse Transcription Kit (Qiagen) according to the manufacturer’s protocol. […]
determined by means of quantitative RT-PCR using the QuantiFast SYBR Green PCR Kit […]

RHO GTPases = experiment: Immunoblotting of total cellular RHO GTPase levels; type: cell-based; conditions: 10 μM, 24 h

T1 sequence (P52565 whole entry): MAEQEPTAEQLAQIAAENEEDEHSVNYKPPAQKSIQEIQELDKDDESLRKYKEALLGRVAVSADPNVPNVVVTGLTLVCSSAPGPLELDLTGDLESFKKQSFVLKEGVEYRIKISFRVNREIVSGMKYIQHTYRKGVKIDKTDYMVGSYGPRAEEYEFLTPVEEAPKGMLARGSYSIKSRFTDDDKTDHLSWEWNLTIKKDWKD

SMILES	Inhibition of RHOGDI1-mediated extraction of CDC42 (in words) [1]	Expression of the alkaline phosphatase gene Alpl (in words) [2]	Total levels of the three RHO GTPases (in words) (RHO GTPases)
COC(=O)C1(C(CC(=O)c2ccccc2)c2ccccc2)N=C(c2ccc(Br)cc2)C2C(=O)N(C)C(=O)C21 (stereo not drawn) [7a]	inhibited		
COC(=O)C1(C(CC(=O)c2cccnc2)c2ccccc2)N=C(c2ccc(Br)cc2)C2C(=O)N(C)C(=O)C21 (stereo not drawn) [7l]		inhibited the expression of the alkaline phosphatase gene	did not alter the total levels

Reference: publication PMC9313812, “The Pseudo‐Natural Product Rhonin Targets RHOGDI” (Angewandte Chemie (International Ed. in English), 2022)
